Measured values as given in the NIST ThermoML archive (doi:10.1016/j.jct.2013.03.027).
Numbers after ± are expanded uncertainties.

Key:
[1] = Crystal; visual observation
[2] = xn = mol fraction of the nth substance listed; details: 101 kPa, Liquid, Archimedean displacement method, x1 = 0.5

Row | Compound | Normal melting temperature [1] [°C] | mass density ([2]; 1065 K) [kg/m3] | mass density ([2]; 1069 K) [kg/m3] | mass density ([2]; 1072 K) [kg/m3] | mass density ([2]; 1073 K) [kg/m3] | mass density ([2]; 1074 K) [kg/m3] | mass density ([2]; 1078 K) [kg/m3] | mass density ([2]; 1084 K) [kg/m3]
1 | [Ag][I] [silver iodide] | 559 ± 1 |  |  |  |  |  |  | 
2 | [Ag][I] [silver iodide] + [Cl-].[Na+] |  | 3670 ± 37 | 3669 ± 37 | 3664 ± 37 | 3663 ± 37 | 3660 ± 37 | 3657 ± 37 | 3652 ± 37
3 | [Cl-].[Na+] [sodium chloride] | 801 ± 1 |  |  |  |  |  |  | 
